Paper PMC12040169 (PLOS Biology, 2025)

Experiment: in vitro
Details: human, hela cells, % viability

Going from `COc1ccc(OCC(F)(F)F)c(C(=O)N2CCSCC2)c1` [CBK005950] to `Cc1cnc2[nH]c(C(F)(F)F)c(CN3CCSCC3)c2c1` [CBK284767], the viability at 28.5 h, 10 µM rises from 83.7% to 90%.

Compared with `COc1nc(NCCc2ccc(OC)c(OC)c2)nc(OC)n1` [CBK266304], `COc1cc(CNC(=O)c2ccc3[nH]ccc3c2)cc(OC)c1OC` [CBK149073] is lower in viability at 28.5 h, 10 µM: 94.4% for the first, 91% for the second.

First: CN1CCN(CCCNC(=O)c2ccc(-c3ccc(C(=O)N(C)C)cc3)nc2)CC1 [CBK158343]
Second: CN(Cc1ccc(-c2ccc(S(C)(=O)=O)cc2)nc1)C1CCN(C(=O)c2cc(Cl)ccc2Cl)CC1 [CBK165943T]
The viability at 28.5 h, 10 µM of the first is higher: 95% for the first, 84.5% for the second.

First: CCN1CC2(CCN(Cc3cc(OC)c(OC)c(OC)c3)CC2)c2ccccc21 [CBK131477]
Second: COc1cc(CCN2CCCCC2)c(C(C)n2cncn2)cc1OC (stereo not shown) [CBK023837G]
The viability at 28.5 h, 10 µM of the first is higher: 93.2% for the first, 90.3% for the second.

Compared with `COc1cc(/C=C2\C(=O)N(c3ccc(NC(C)=O)cc3)N=C2c2ccccc2)ccc1O` [CBK265664], `CC(=O)Nc1ccc(CCOc2nccnc2-c2ccccc2)cc1` [CBK106683] is higher in viability at 28.5 h, 10 µM: 87.5% for the first, 96.3% for the second.

Going from `CCCc1cc(CNC(=O)C(C)n2ccnc2)on1` (stereo not shown) [CBK282046] to `CCn1cc(C(=O)N2CCN(Cc3ccco3)C[C@@H]2C(C)C)cn1` [CBK284307], the viability at 28.5 h, 10 µM rises from 88.3% to 97.7%.

Going from `Cc1ccc(S(=O)(=O)Cc2noc([C@@H]3C[C@@H](O)CN3CC3CCCCC3)n2)cc1` [CBK288841] to `CS(=O)(=O)c1cccc(C(=O)n2c(=O)n(CC3CCCCC3)c3ccccc32)c1` [CBK106520], the viability at 28.5 h, 10 µM falls from 115% to 103%.

Compared with `O=C(CSCc1ccc(Br)cc1)NCc1ccccn1` [CBK268435], `Cc1ccc(Cn2c(=N)n(CC(=O)c3ccc(Br)cc3)c3ccccc32)cc1` [CBK262979B] is lower in viability at 28.5 h, 10 µM: 102% for the first, 94% for the second.

Compared with `Cc1ccc(C)c(S(=O)(=O)Nc2ccc(O)c(Sc3nnc[nH]3)c2)c1` [CBK266894], `Cc1ccc(S(=O)(=O)Nc2ccc(-c3cn4cccnc4n3)cc2)cc1[N+](=O)[O-]` [CBK268936] is lower in viability at 28.5 h, 10 µM: 95.2% for the first, 60.5% for the second.

Compared with `CC(=O)c1csc(NC(=O)Cn2ccc3ccc(F)cc32)n1` [CBK282572], `C/C(=N/NC(=O)CSc1nc2ccccc2n1C)c1cccc([N+](=O)[O-])c1` [CBK263179] is higher in viability at 28.5 h, 10 µM: 90.5% for the first, 99.3% for the second.

First: OCCOc1cccc(OCCOc2nccnc2N2CCNCC2)c1 [CBK014339G]
Second: Cc1oc(-c2ccccc2)cc1C(=O)Nc1ccc(N2CCNCC2)nc1 [CBK034127T]
The viability at 28.5 h, 10 µM of the first is higher: 112% for the first, 80.3% for the second.

First: Cn1ccc(C(=O)NC(Cc2ccsc2)c2ccccn2)cc1=O (stereo not shown) [CBK285273]
Second: CCOC(=O)CSc1nc2ccccc2c(=O)n1Cc1ccccc1 [CBK054124]
The viability at 28.5 h, 10 µM of the first is higher: 97.5% for the first, 95.4% for the second.

First: O=C(C1CC1)N1C2CCC1CC(O)(Cn1ccc3ccncc31)C2 (stereo not shown) [CBK284652]
Second: O=C(C1CC1)N1C2CCC1Cn1c(nc3ccccc3c1=O)C2 (stereo not shown) [CBK284451]
The viability at 28.5 h, 10 µM of the first is lower: 90.4% for the first, 92.2% for the second.

First: O=C1CC(N2CCN(Cc3ccc4c(c3)OCO4)CC2)C(=O)N1c1ccc(Cl)cc1 (stereo not shown) [CBK074402]
Second: CCc1nc2ccc(C(=O)N3CCCCC3)cn2c1N(CC)Cc1ccc2c(c1)OCCO2 [CBK146903]
The viability at 28.5 h, 10 µM of the first is higher: 103% for the first, 100% for the second.

First: Cn1ccnc1C1(O)CCN(C(=O)c2ccc(F)cc2F)CC1 [CBK283552]
Second: N#Cc1ccc(-c2cc(N3CCN(C(=O)c4ccco4)CC3)ncn2)cc1 [CBK037813]
The viability at 28.5 h, 10 µM of the first is higher: 103% for the first, 98.2% for the second.

Going from `Cn1c(SCC(=O)Nc2c(F)cc(F)cc2Br)nnc1-c1cccnc1` [CBK267583] to `Cn1c(=O)c2c(ncn2CC(=O)Nc2cccnc2)n(C)c1=O` [CBK133286], the viability at 28.5 h, 10 µM rises from 90.8% to 94.5%.

Compared with `c1csc(CCN2CCC3(CC2)OCCc2c3[nH]c3ccccc23)c1` [CBK040156], `O=C(NCc1nnc(-c2cccs2)o1)C1(c2ccccc2F)CC1` [CBK284637] is lower in viability at 28.5 h, 10 µM: 87.1% for the first, 83.2% for the second.

First: CCNC(=O)N[C@H]1CO[C@H]2[C@@H]1OC[C@@H]2n1nnnc1Oc1ccccc1 [CBK289484]
Second: COc1ccccc1-c1nc(C2CCCN(C(=O)NCCc3cccs3)C2)n2ccccc12 (stereo not shown) [CBK047163]
The viability at 28.5 h, 10 µM of the first is higher: 102% for the first, 95.5% for the second.

First: CN(C)CCCNc1c(N)c(=O)oc2ccccc12 [CBK261468]
Second: Cc1nnc(SCc2nc3ccccc3c(=O)[nH]2)[nH]1 [CBK267830]
The viability at 28.5 h, 10 µM of the first is higher: 94.3% for the first, 90% for the second.

Going from `Cc1nnc2sc(-c3cccc4ccccc34)nn12` [CBK269185] to `O=C(Cc1cccc2ccccc12)Nc1nnc(C2=COCCO2)o1` [CBK287414], the viability at 28.5 h, 10 µM rises from 39.8% to 86.6%.

Compared with `CCC12CN3CC(CC)(CN(C1)C3c1ccc([N+](=O)[O-])cc1)C2=O` (stereo not shown) [CBK263689], `O=C(c1cccnc1)N1CCN(Cc2cccc([N+](=O)[O-])c2)CC1` [CBK263020] is higher in viability at 28.5 h, 10 µM: 108% for the first, 114% for the second.

Compared with `CC(C)CN(Cc1cccs1)C(=O)c1cc2n(n1)CCCN(C)C2` [CBK306793], `CN(CCCN1CCCCC1)C(=O)C1Cc2cc(Cl)ccc2O1` (stereo not shown) [CBK282162] is higher in viability at 28.5 h, 10 µM: 102% for the first, 104% for the second.

Compared with `COc1ccc([C@@H]2CN(C(=O)c3ccccc3)[C@H]3CCN(Cc4ccc(F)cc4)C[C@@H]23)cc1` [CBK285581], `Cc1ccc(C(=O)NCc2ccc(-c3n[nH]cc3C(=O)N(C)c3ccccc3)cc2)cc1` [CBK285600] is lower in viability at 28.5 h, 10 µM: 109% for the first, 98.7% for the second.

Going from `O=C(NCCNCc1ccco1)c1ccc(F)cc1` [CBK266873G] to `O=C(NCc1ccco1)c1cnoc1-c1ccc(F)cc1` [CBK154960], the viability at 28.5 h, 10 µM rises from 103% to 116%.

First: COc1ccc(NC(=O)CCSCCC(=O)O)cc1S(=O)(=O)N1CCCCC1 [CBK296655]
Second: CS(=O)(=O)N(CC(=O)Nc1ccc(S(=O)(=O)N2CCCCCC2)cc1)c1ccc(F)cc1 [CBK266932]
The viability at 28.5 h, 10 µM of the first is lower: 80.3% for the first, 91.8% for the second.

Compared with `Cc1cc(OCC(=O)NCc2cccnc2)cc(C)c1Cl` [CBK263658], `CC(=O)Nc1cccc(-c2nccnc2NS(C)(=O)=O)c1` [CBK050740] is higher in viability at 28.5 h, 10 µM: 86.5% for the first, 108% for the second.

Going from `O=C(CCCN1C(=O)c2cccc3cccc(c23)C1=O)N1CCN(C/C=C/c2ccccc2)CC1` [CBK263300C] to `CNC(=O)C1(Cc2ccccc2-c2cccs2)CCN(C(=O)Cc2ccc(C)cc2)CC1` [CBK285697], the viability at 28.5 h, 10 µM falls from 103% to 95%.

First: CCC#CC(=O)Nc1ccc(N2CCNCC2)nc1 [CBK004746T]
Second: COCOc1ccc(-c2ncc(OCCN3CCCC3=O)nc2NC(C)=O)cc1 [CBK145253]
The viability at 28.5 h, 10 µM of the first is lower: 101% for the first, 104% for the second.

Compared with `COC(C)(C)C(=O)N1CCCC(c2ccc(Cc3ccc(Cl)cc3)cn2)C1` (stereo not shown) [CBK285846], `CC(C)(Oc1ccc(Cl)cc1)C(=O)Nc1nnc[nH]1` [CBK288220] is higher in viability at 28.5 h, 10 µM: 98.6% for the first, 102% for the second.

Going from `Cc1ccc(C2(C(=O)N(C)CCN3CCCCC3)CCOCC2)cc1` [CBK281833] to `CCOC(=O)c1c(C)nc2n(CCN3CCCCC3)c3ccccc3n12` [CBK278238C], the viability at 28.5 h, 10 µM falls from 107% to 91.3%.

Going from `C[S+]([O-])CCC(NS(=O)(=O)c1ccccc1)C(=O)O` (stereo not shown) [CBK268267] to `CCc1nnc(NS(=O)(=O)c2ccc(NCc3ccccc3O)cc2)s1` [CBK085149], the viability at 28.5 h, 10 µM rises from 93.2% to 113%.

Compared with `CC1=C[C@@H](CNC(=O)c2ccccn2)[C@H](C(C)C)C[C@H]1CC(=O)O` [CBK289212], `CC(C)NC(=O)c1sc2ccccc2c1C1CN(C(=O)CC2CCCCC2)CCO1` (stereo not shown) [CBK285869] is higher in viability at 28.5 h, 10 µM: 87.5% for the first, 91.5% for the second.

Compared with `CCC(CO)Nc1cncc(-c2cccc(C(F)(F)F)c2)n1` (stereo not shown) [CBK065783], `CCN(CCO)c1ccc(Nc2nc(-c3ccc(F)c(Cl)c3)cn3ccnc23)cc1` [CBK038042] is higher in viability at 28.5 h, 10 µM: 99.4% for the first, 100% for the second.

Compared with `CC(C)n1cnc2ccc(-c3noc(-c4nccc5ccccc45)n3)cc21` [CBK288617], `CCOc1ccccc1-c1noc(-c2nn(-c3ccc(C)cc3)ccc2=O)n1` [CBK288597] is lower in viability at 28.5 h, 10 µM: 109% for the first, 95.7% for the second.

First: O=C(O)c1cccc(OCCNS(=O)(=O)c2ccc(N3CCCC3=O)cc2)c1 [CBK299779]
Second: O=S(=O)(NCc1ccccc1)c1cccc(S(=O)(=O)NCc2ccccc2)c1 [CBK263250]
The viability at 28.5 h, 10 µM of the first is higher: 97.3% for the first, 91.5% for the second.

Going from `O=C(c1ccccc1)c1cn[nH]c1-c1ccccc1O` [CBK287970] to `O=c1c([N+](=O)[O-])c(O)c2ccccc2n1Cc1ccccc1` [CBK291182], the viability at 28.5 h, 10 µM rises from 77.8% to 94.8%.

Going from `O=C(CC1C(=O)NCCN1C(=S)Nc1ccccc1)Nc1ccc2c(c1)OCCO2` (stereo not shown) [CBK267999] to `Cc1ccccc1N1C(=O)c2ccc(Br)cc2C1=O` [CBK022430], the viability at 28.5 h, 10 µM falls from 95.9% to 90.9%.

Compared with `CC1CN(c2cc(CO)c(F)cn2)CC2(CCOCC2)O1` (stereo not shown) [CBK304773], `O=C(N[C@H]1C[C@H]2C(=O)NC[C@@H](CCC(=O)N3CCOCC3)N2C1)c1cccs1` [CBK289009] is higher in viability at 28.5 h, 10 µM: 91.9% for the first, 92% for the second.

Going from `Cc1cc(C)[n+](-c2nccs2)c(C)c1` [CBK008782G] to `Fc1ccc(C2=Nn3cnnc3SC2)c(F)c1` [CBK288078], the viability at 28.5 h, 10 µM falls from 103% to 97%.

Going from `CN1CCN(CCOC(=O)N2CCSCC2)CC1` [CBK200288] to `CC(NC(=O)C1CCN(C2Cc3ccccc3C2)CC1)c1ccccc1` (stereo not shown) [CBK148031], the viability at 28.5 h, 10 µM rises from 94.7% to 95.7%.

Compared with `O=c1ccn([C@H]2C[C@@H](O)[C@@H](CO)O2)c(=O)[nH]1` [CBK201316], `COc1ccc(-c2nc3c(c(SCC(=O)O)n2)COC(C)(C)C3)cc1` [CBK286704] is higher in viability at 28.5 h, 10 µM: 98.3% for the first, 107% for the second.

Going from `COc1ccc(-c2n[nH]c(N)n2)cc1` [CBK028843] to `COc1ccc(C(C)C)cc1-c1nccnc1N[C@@H](CO)C(C)C` [CBK036711], the viability at 28.5 h, 10 µM falls from 116% to 109%.

Compared with `CN(C)c1cccc(-c2ccc(Nc3cccc(NC(=O)c4ccncc4)c3)nc2)c1` [CBK037721], `Nc1ncc(CN(Cc2ccco2)CC(O)Cn2c3ccccc3c3ccccc32)cn1` (stereo not shown) [CBK286462] is higher in viability at 28.5 h, 10 µM: 58.7% for the first, 88.6% for the second.

Compared with `CN(C)C(=O)C(C)(C)Oc1cc(C(F)(F)F)n(C)n1` [CBK056980], `COc1cccc(OCC(O)CN(C)S(=O)(=O)O)c1` (stereo not shown) [CBK027121N] is lower in viability at 28.5 h, 10 µM: 94.2% for the first, 89.9% for the second.
